In patent US8778964B2, “Hydroxy-substituted imidazo[1,2-a]-pyridinecarboxamides and their use” (Bayer Pharma Aktiengesellschaft, priority 2012, dated 2014) one finds minimal effective concentration data, which are given here for 32 compounds.

In general, minimal effective concentration refers to the smallest amount tested that counted as effective.

In this assay the test system is recombinant guanylate cyclase reporter cell line. Put plainly: Action on recombinant guanylate cyclase reporter cell line (MEC). The assay is classed as cell-based. The note with it: in some cases mean values obtained from individual determinations. As for the experimental part:
B-2. Action on Recombinant Guanylate Cyclase Reporter Cell Line
The cellular action of the compounds according to the invention is determined on a recombinant guanylate cyclase reporter cell line, as described in F. Wunder et al., Anal. Biochem. 339, 104-112 (2005).
Representative values (MEC=minimal effective concentration) for the compounds according to the invention are shown in the following table (in some cases as mean values obtained from individual determinations): […]
In the case of `CCCC[C@H](CO)NC(=O)c1c(C)nc2c(OCc3c(Cl)cccc3Cl)cccn12` [Example 8, 8-[(2,6-dichlorobenzyl)oxy]-N-[(2R)-1-hydroxyhexan-2-yl]-2-methylimidazo[1,2-a]pyridine-3-carboxamide], the minimal effective concentration was determined as 0.3 µM.

Take `CCCC[C@H](CO)NC(=O)c1c(C)nc2c(OCc3cccc(Cl)c3Cl)cccn12` [Example 9, 8-[(2,3-dichlorobenzyl)oxy]-N-[(2R)-1-hydroxy-hexan-2-yl]-2-methylimidazo[1,2-a]pyridine-3-carboxamide]: the minimal effective concentration was 0.5 µM.

With `CCCC[C@H](CO)NC(=O)c1c(C)nc2c(OCc3cccc(F)c3F)cccn12` [Example 10, 8-[(2,3-difluorobenzyl)oxy]-N-[(2R)-1-hydroxyhexan-2-yl]-2-methylimidazo[1,2-a]pyridine-3-carboxamide], the minimal effective concentration was 0.3 µM.

Regarding `CCCC[C@H](CO)NC(=O)c1c(C)nc2c(OCc3cccc(C)c3F)cccn12` [Example 11, 8-[(2-fluoro-3-methylbenzyl)oxy]-N-[(2R)-1-hydroxyhexan-2-yl]-2-methylimidazo[1,2-a]pyridine-3-carboxamide], the minimal effective concentration turned out to be 1.5 µM.

For the compound `CCCC[C@H](CO)NC(=O)c1c(C)nc2c(OCc3cccc4c3OC(F)(F)O4)cccn12` [Example 12, 8-[(2,2-difluoro-1,3-benzodioxol-4-yl)methoxy]-N-[(2R)-1-hydroxyhexan-2-yl]-2-methylimidazo[1,2-a]-pyridine-3-carboxamide], the minimal effective concentration is 3 µM.

In the case of `CCCC[C@H](CO)NC(=O)c1c(C)nc2c(OCc3c(C)cccc3C)cccn12` [Example 13, 8-[(2,6-dimethylbenzyl)oxy]-N-[(2R)-1-hydroxyhexan-2-yl]-2-methylimidazo[1,2-a]pyridine-3-carboxamide], the minimal effective concentration came out at 3 µM.

`CCCC[C@H](CO)NC(=O)c1c(C)nc2c(OCc3cccc(C(F)(F)F)c3F)cccn12` [Example 14, 8-{[2-fluoro-3-(trifluoromethyl)benzyl]oxy}-N-[(2R)-1-hydroxyhexan-2-yl]-2-methylimidazo[1,2-a]-pyridine-3-carboxamide]: the minimal effective concentration stood at 3 µM.

For the compound `CCCC[C@H](CO)NC(=O)c1c(C)nc2c(OCc3c(F)cc(F)cc3F)cccn12` [Example 15, N-[(2R)-1-Hydroxyhexan-2-yl]-2-methyl-8-[(2,4,6-trifluorobenzyl)oxy]imidazo[1,2-a]pyridine-3-carboxamide], the minimal effective concentration stood at 0.1 µM.

Consider `CCCC[C@H](CO)NC(=O)c1c(C)nc2c(OCc3ccccc3)cccn12` [Example 16, 8-(Benzyloxy)-N-[(2R)-1-hydroxyhexan-2-yl]-2-methylimidazo[1,2-a]pyridine-3-carboxamide], for which the minimal effective concentration was determined as 1 µM.

Consider `CC[C@H](CO)NC(=O)c1c(C)nc2c(OCc3ccccc3)cccn12` [Example 17, 8-(Benzyloxy)-N-[(2R)-1-hydroxybutan-2-yl]-2-methylimidazo[1,2-a]pyridine-3-carboxamide], for which the minimal effective concentration turned out to be 3 µM.

For the compound `CCC[C@H](CO)NC(=O)c1c(C)nc2c(OCc3c(F)cccc3F)cccn12` [Example 18, 8-[(2,6-difluorobenzyl)oxy]-N-[(2R)-1-hydroxy-pentan-2-yl]-2-methylimidazo[1,2-a]pyridine-3-carboxamide], the minimal effective concentration came to 0.1 µM.

For `Cc1nc2c(OCc3c(F)cccc3F)cccn2c1C(=O)N[C@H]1CCC[C@@H]1O` [Example 19, 8-[(2,6-difluorobenzyl)oxy]-N-[(1S,2S)-2-hydroxycyclopentyl]-2-methylimidazo[1,2-a]-pyridine-3-carboxamide], the minimal effective concentration was found to be 1 µM.

Consider `Cc1nc2c(OCc3c(F)cccc3F)cccn2c1C(=O)NC(C)(C)[C@H](C)O` [Example 20, 8-[(2,6-difluorobenzyl)oxy]-N-[(3S)-3-hydroxy-2-methylbutan-2-yl]-2-methylimidazo[1,2-a]-pyridine-3-carboxamide], for which the minimal effective concentration came to 1 µM.

For the compound `Cc1nc2c(OCc3c(F)cccc3F)cccn2c1C(=O)NCCO` [Example 21, 8-[(2,6-difluorobenzyl)oxy]-N-(2-hydroxyethyl)-2-methylimidazo[1,2-a]pyridine-3-carboxamide], the minimal effective concentration turned out to be 1 µM.

On to `Cc1nc2c(OCc3c(F)cccc3F)cccn2c1C(=O)NCCCO` [Example 22, 8-[(2,6-difluorobenzyl)oxy]-N-(3-hydroxy-propyl)-2-methylimidazo[1,2-a]pyridine-3-carboxamide], for which the minimal effective concentration worked out at 1 µM.

Consider `Cc1nc2c(OCc3c(F)cccc3F)cccn2c1C(=O)NCCCCO` [Example 23, 8-[(2,6-difluorobenzyl)oxy]-N-(4-hydroxybutyl)-2-methylimidazo[1,2-a]pyridine-3-carboxamide], for which the minimal effective concentration came out at 0.3 µM.

`Cc1nc2c(OCc3c(F)cccc3F)cccn2c1C(=O)NCCOCCO` [Example 24, 8-[(2,6-difluorobenzyl)oxy]-N-[2-(2-hydroxy-ethoxy)ethyl]-2-methylimidazo[1,2-a]pyridine-3-carboxamide]: the minimal effective concentration was determined as 1 µM.

With `CSCC[C@H](CO)NC(=O)c1c(C)nc2c(OCc3c(F)cccc3F)cccn12` [Example 25, 8-[(2,6-difluorobenzyl)oxy]-N-[(2R)-1-hydroxy-4-(methylsulphanyl)butan-2-yl]-2-methyl-imidazo[1,2-a]pyridine-3-carboxamide], the minimal effective concentration amounted to 0.1 µM.

As for `Cc1nc2c(OCc3c(F)cccc3F)cccn2c1C(=O)NC(CO)CO` [Example 26, 8-[(2,6-difluorobenzyl)oxy]-N-(1,3-dihydroxy-propan-2-yl)-2-methylimidazo[1,2-a]pyridine-3-carboxamide], the minimal effective concentration came out at 2 µM.

Regarding `Cc1nc2c(OCc3c(F)cccc3F)cccn2c1C(=O)N[C@@H](CO)C(C)C` [Example 29, 8-[(2,6-difluorobenzyl)oxy]-N-[(2R)-1-hydroxy-3-methylbutan-2-yl]-2-methylimidazo[1,2-a]-pyridine-3-carboxamide], the minimal effective concentration was 0.1 µM.

Consider `Cc1nc2c(OCc3c(F)cccc3F)cccn2c1C(=O)NC1(CO)CCCC1` [Example 31, 8-[(2,6-difluorobenzyl)oxy]-N-[1-(hydroxymethyl)cyclopentyl]-2-methylimidazo[1,2-a]pyridine-3-carboxamide], for which the minimal effective concentration is 1 µM.

As to `Cc1nc2c(OCc3c(F)cccc3F)cccn2c1C(=O)NC[C@@H](O)c1ccccc1` [Example 32, 8-[(2,6-difluorobenzyl)oxy]-N-[(2S)-2-hydroxy-2-phenylethyl]-2-methylimidazo[1,2-a]pyridine-3-carboxamide], the minimal effective concentration came to 1 µM.

On to `Cc1nc2c(OCc3c(F)cccc3F)cccn2c1C(=O)NC[C@H](O)c1ccccc1` [Example 33, 8-[(2,6-difluorobenzyl)oxy]-N-[(2R)-2-hydroxy-2-phenylethyl]-2-methylimidazo[1,2-a]pyridine-3-carboxamide], for which the minimal effective concentration amounted to 0.3 µM.

With `Cc1nc2c(OCc3c(F)cccc3F)cccn2c1C(=O)NC(C)(C)CO` [Example 34, 8-[(2,6-difluorobenzyl)oxy]-N-(1-hydroxy-2-methylpropan-2-yl)-2-methylimidazo[1,2-a]-pyridine-3-carboxamide], the minimal effective concentration amounted to 0.3 µM.

For `Cc1nc2c(OCc3c(F)cccc3F)cccn2c1C(=O)N[C@@H](CO)C(C)(C)C` [Example 35, 8-[(2,6-difluorobenzyl)oxy]-N-[(2R)-1-hydroxy-3,3-dimethylbutan-2-yl]-2-methylimidazo[1,2-a]-pyridine-3-carboxamide], the minimal effective concentration is 0.3 µM.

With `Cc1nc2c(OCc3c(F)cccc3F)cccn2c1C(=O)N[C@@H]1CCC[C@H]1O` [Example 36, 8-[(2,6-difluorobenzyl)oxy]-N-[(1R,2R)-2-hydroxycyclopentyl]-2-methylimidazo[1,2-a]-pyridine-3-carboxamide], the minimal effective concentration came out at 0.1 µM.

As for `Cc1nc2c(OCc3c(F)cccc3F)cccn2c1C(=O)N[C@@H]1CCC[C@@H]1O` [Example 37, 8-[(2,6-difluorobenzyl)oxy]-N-[(1R,2S)-2-hydroxycyclopentyl]-2-methylimidazo[1,2-a]-pyridine-3-carboxamide], the minimal effective concentration worked out at 0.3 µM.

As for `Cc1nc2c(OCc3c(F)cccc3F)cccn2c1C(=O)N[C@@H](CO)Cc1ccccc1` [Example 38, 8-[(2,6-difluorobenzyl)oxy]-N-[(2R)-1-hydroxy-3-phenylpropan-2-yl]-2-methylimidazo[1,2-a]-pyridine-3-carboxamide], the minimal effective concentration came out at 0.3 µM.

Consider `Cc1nc2c(OCc3c(F)cccc3F)cccn2c1C(=O)N[C@@H](CO)CC(C)C` [Example 39, 8-[(2,6-Difluorobenzyl)oxy]-N-[(2R)-1-hydroxy-4-methylpentan-2-yl]-2-methylimidazo[1,2-a]-pyridine-3-carboxamide], for which the minimal effective concentration was determined as 0.03 µM.

In the case of `Cc1nc2c(OCc3c(F)cccc3F)cccn2c1C(=O)N[C@H]1c2ccccc2C[C@H]1O` [Example 40, 8-[(2,6-difluorobenzyl)oxy]-N-[(1S,2R)-2-hydroxy-2,3-dihydro-1H-inden-1-yl]-2-methylimidazo[1,2-a]pyridine-3-carboxamide], the minimal effective concentration came out at 0.1 µM.

In the case of `Cc1nc2c(OCc3c(F)cccc3F)cccn2c1C(=O)NCC(C)(C)CO` [Example 41, 8-[(2,6-difluorobenzyl)oxy]-N-(3-hydroxy-2,2-dimethylpropyl)-2-methylimidazo[1,2-a]-pyridine-3-carboxamide], the minimal effective concentration worked out at 3 µM.

With `Cc1nc2c(OCc3c(F)cccc3F)cccn2c1C(=O)N[C@H]1CC[C@H](O)CC1` [Example 42, (rac)-8-[(2,6-difluorobenzyl)oxy]-N-(trans-4-hydroxycyclohexyl)-2-methylimidazo[1,2-a]-pyridine-3-carboxamide], the minimal effective concentration amounted to 1 µM.
